From PubChem BioAssay AID1745844 (Carcinogenic Potency Database (CPDB), 2022)

Test system: rodent lifetime carcinogenesis bioassay, tumor incidence TD50
Assay: chronic cancer bioassays in animals – CPDB, compiled studies (AID 1745844)
Conditions: mouse, strain B6C3F1, males, inhaled

Compound: C=CC=C
- TD50 (site: Harderian gland, lesion: adenocarcinoma + adenocarcinoma, bilateral, dosed 52 weeks, study length 104 weeks): 88.9 mg/kg/day
- TD50 (site: Harderian gland, lesion: adenocarcinoma + adenoma + adenocarcinoma, bilateral + adenoma, bilateral, dosed 13 weeks, study length 104 weeks): 11.7 mg/kg/day
- TD50 (site: Harderian gland, lesion: adenocarcinoma + adenoma + adenocarcinoma, bilateral + adenoma, bilateral, dosed 26 weeks, study length 104 weeks): 22.7 mg/kg/day
- TD50 (site: Harderian gland, lesion: adenocarcinoma + adenoma + adenocarcinoma, bilateral + adenoma, bilateral, dosed 52 weeks, study length 104 weeks): 13.1 mg/kg/day
- TD50 (site: Harderian gland, lesion: adenocarcinoma + adenoma + adenoma, bilateral, dosed 40 weeks, study length 104 weeks): 17.5 mg/kg/day
- TD50 (site: Harderian gland, lesion: adenocarcinoma + adenoma + adenoma, bilateral, dosed 82 weeks, study length 104 weeks): 26.1 mg/kg/day
- TD50 (site: Harderian gland, lesion: adenocarcinoma, dosed 40 weeks, study length 104 weeks): 531 mg/kg/day
- TD50 (site: Harderian gland, lesion: adenocarcinoma, dosed 82 weeks, study length 104 weeks): 221 mg/kg/day
- TD50 (site: Harderian gland, lesion: adenoma + adenoma, bilateral, dosed 13 weeks, study length 104 weeks): 14.9 mg/kg/day
- TD50 (site: Harderian gland, lesion: adenoma + adenoma, bilateral, dosed 26 weeks, study length 104 weeks): 22.7 mg/kg/day
- TD50 (site: Harderian gland, lesion: adenoma + adenoma, bilateral, dosed 40 weeks, study length 104 weeks): 18 mg/kg/day
- TD50 (site: Harderian gland, lesion: adenoma + adenoma, bilateral, dosed 52 weeks, study length 104 weeks): 14.9 mg/kg/day
- TD50 (site: Harderian gland, lesion: adenoma + adenoma, bilateral, dosed 82 weeks, study length 104 weeks): 27.6 mg/kg/day
- TD50 (site: Zymbal's gland, lesion: adenoma + carcinoma, dosed 13 weeks, study length 104 weeks): 223 mg/kg/day
- TD50 (site: Zymbal's gland, lesion: adenoma + carcinoma, dosed 26 weeks, study length 104 weeks): 135 mg/kg/day
- TD50 (site: Zymbal's gland, lesion: adenoma + carcinoma, dosed 40 weeks, study length 104 weeks): 647 mg/kg/day
- TD50 (site: Zymbal's gland, lesion: carcinoma, dosed 13 weeks, study length 104 weeks): 336 mg/kg/day
- TD50 (site: Zymbal's gland, lesion: carcinoma, dosed 26 weeks, study length 104 weeks): 135 mg/kg/day
- TD50 (site: Zymbal's gland, lesion: carcinoma, dosed 40 weeks, study length 104 weeks): 625 mg/kg/day
- TD50 (site: all sites + brain + forestomach + Harderian gland + heart + kidney + liver + lung + preputial gland, lesion: histiocytic sarcoma + malignant lymphoma, mixed type + malignant lymphoma, lymphocytic type + malignant lymphoma + olfactory lob, dosed 13 weeks, study length 104 weeks): 7 mg/kg/day
- TD50 (site: all sites + brain + forestomach + Harderian gland + heart + kidney + liver + lung + preputial gland, lesion: histiocytic sarcoma + malignant lymphoma, mixed type + malignant lymphoma, lymphocytic type + malignant lymphoma + olfactory lob, dosed 26 weeks, study length 104 weeks): 12.6 mg/kg/day
- TD50 (site: all sites + forestomach + Harderian gland + heart + kidney + liver + lung + preputial gland, lesion: histiocytic sarcoma + malignant lymphoma, histiocytic type + malignant lymphoma, mixed type + malignant lymphoma, lymphocytic, dosed 82 weeks, study length 104 weeks): 10.7 mg/kg/day
- TD50 (site: all sites + forestomach + Harderian gland + heart + kidney + liver + lung + preputial gland, lesion: histiocytic sarcoma + malignant lymphoma, mixed type + malignant lymphoma, lymphocytic type + malignant lymphoma + squamous-cell, dosed 40 weeks, study length 104 weeks): 10.9 mg/kg/day
- TD50 (site: all sites + forestomach + Harderian gland + heart + kidney + liver + lung + preputial gland, lesion: histiocytic sarcoma + malignant lymphoma, mixed type + malignant lymphoma, lymphocytic type + malignant lymphoma + squamous-cell, dosed 52 weeks, study length 104 weeks): 6.12 mg/kg/day
- TD50 (site: all sites + forestomach + heart + lung, lesion: malignant lymphoma, NOS + papilloma, NOS + squamous-cell papilloma + hemangiosarcoma + alveolar/bronchiolar adenoma + alveolar/bro, dosed 60 weeks, study length 60 weeks): 28.8 mg/kg/day
- TD50 (site: all sites, lesion: hemangioma + hemangiosarcoma, dosed 13 weeks, study length 104 weeks): 16.9 mg/kg/day
- TD50 (site: all sites, lesion: hemangioma + hemangiosarcoma, dosed 26 weeks, study length 104 weeks): 17.7 mg/kg/day
- TD50 (site: all sites, lesion: hemangioma + hemangiosarcoma, dosed 40 weeks, study length 104 weeks): 17.3 mg/kg/day
- TD50 (site: all sites, lesion: hemangioma + hemangiosarcoma, dosed 52 weeks, study length 104 weeks): 11.1 mg/kg/day
- TD50 (site: all sites, lesion: hemangioma + hemangiosarcoma, dosed 82 weeks, study length 104 weeks): 38 mg/kg/day
- TD50 (site: all sites, lesion: hemangioma, dosed 13 weeks, study length 104 weeks): 45.8 mg/kg/day
- TD50 (site: all sites, lesion: hemangioma, dosed 40 weeks, study length 104 weeks): 95.2 mg/kg/day
- TD50 (site: all sites, lesion: hemangiosarcoma, dosed 13 weeks, study length 104 weeks): 21.9 mg/kg/day
- TD50 (site: all sites, lesion: hemangiosarcoma, dosed 26 weeks, study length 104 weeks): 17.7 mg/kg/day
- TD50 (site: all sites, lesion: hemangiosarcoma, dosed 40 weeks, study length 104 weeks): 20.8 mg/kg/day
- TD50 (site: all sites, lesion: hemangiosarcoma, dosed 52 weeks, study length 104 weeks): 11.9 mg/kg/day
- TD50 (site: all sites, lesion: hemangiosarcoma, dosed 82 weeks, study length 104 weeks): 45.5 mg/kg/day
- TD50 (site: all sites, lesion: histiocytic sarcoma + malignant lymphoma, histiocytic type + malignant lymphoma, mixed type + malignant lymphoma, lymphocytic, dosed 82 weeks, study length 104 weeks): 63.5 mg/kg/day
- TD50 (site: all sites, lesion: histiocytic sarcoma + malignant lymphoma, mixed type + malignant lymphoma, lymphocytic type + malignant lymphoma, dosed 13 weeks, study length 104 weeks): 26.2 mg/kg/day
- TD50 (site: all sites, lesion: histiocytic sarcoma + malignant lymphoma, mixed type + malignant lymphoma, lymphocytic type + malignant lymphoma, dosed 26 weeks, study length 104 weeks): 28.8 mg/kg/day
- TD50 (site: all sites, lesion: histiocytic sarcoma + malignant lymphoma, mixed type + malignant lymphoma, lymphocytic type + malignant lymphoma, dosed 40 weeks, study length 104 weeks): 57.1 mg/kg/day
- TD50 (site: all sites, lesion: histiocytic sarcoma + malignant lymphoma, mixed type + malignant lymphoma, lymphocytic type + malignant lymphoma, dosed 52 weeks, study length 104 weeks): 27.6 mg/kg/day
- TD50 (site: all sites, lesion: histiocytic sarcoma, dosed 13 weeks, study length 104 weeks): 91.1 mg/kg/day
- TD50 (site: all sites, lesion: histiocytic sarcoma, dosed 26 weeks, study length 104 weeks): 396 mg/kg/day
- TD50 (site: all sites, lesion: histiocytic sarcoma, dosed 40 weeks, study length 104 weeks): 128 mg/kg/day
- TD50 (site: all sites, lesion: histiocytic sarcoma, dosed 52 weeks, study length 104 weeks): 110 mg/kg/day
- TD50 (site: all sites, lesion: histiocytic sarcoma, dosed 82 weeks, study length 104 weeks): 157 mg/kg/day
- TD50 (site: all sites, lesion: malignant lymphoma, NOS, dosed 60 weeks, study length 60 weeks): 105 mg/kg/day
- TD50 (site: all sites, lesion: malignant lymphoma, histiocytic type + malignant lymphoma, mixed type + malignant lymphoma, lymphocytic type + malignant lymph, dosed 82 weeks, study length 104 weeks): 99.8 mg/kg/day
- TD50 (site: all sites, lesion: malignant lymphoma, lymphocytic type, dosed 13 weeks, study length 104 weeks): 66.8 mg/kg/day
- TD50 (site: all sites, lesion: malignant lymphoma, lymphocytic type, dosed 26 weeks, study length 104 weeks): 46 mg/kg/day
- TD50 (site: all sites, lesion: malignant lymphoma, lymphocytic type, dosed 40 weeks, study length 104 weeks): 142 mg/kg/day
- TD50 (site: all sites, lesion: malignant lymphoma, lymphocytic type, dosed 52 weeks, study length 104 weeks): 129 mg/kg/day
- TD50 (site: all sites, lesion: malignant lymphoma, lymphocytic type, dosed 82 weeks, study length 104 weeks): 157 mg/kg/day
- TD50 (site: all sites, lesion: malignant lymphoma, mixed type + malignant lymphoma, lymphocytic type + malignant lymphoma, dosed 13 weeks, study length 104 weeks): 34.9 mg/kg/day
